As a reminder, the IC50 is the concentration that gives 50% inhibition.

In one test the target is GST tagged IRAK-4 (Homo sapiens (Human), UniProt Q9NWZ3). The test can be described thus: IRAK-4 Kinase Assay (IMAP fluorescence polarization). Conditions: 100 μM ATP, 30 minutes at 25° C. Format: biochemical. In a few lines: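 Activity was read by IMAP fluorescence polarization, where phosphopeptide binding to M(III) nanoparticles raises FP. The 30-minute, 25° C reaction used 100 μM ATP, 100 nM RP7030 substrate and 0.5 nM GST-IRAK-4 in pH 7.2 Tris buffer with MgCl2, DTT and Tween 20.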
GST tagged IRAK-4, sequence (Q9NWZ3 whole entry): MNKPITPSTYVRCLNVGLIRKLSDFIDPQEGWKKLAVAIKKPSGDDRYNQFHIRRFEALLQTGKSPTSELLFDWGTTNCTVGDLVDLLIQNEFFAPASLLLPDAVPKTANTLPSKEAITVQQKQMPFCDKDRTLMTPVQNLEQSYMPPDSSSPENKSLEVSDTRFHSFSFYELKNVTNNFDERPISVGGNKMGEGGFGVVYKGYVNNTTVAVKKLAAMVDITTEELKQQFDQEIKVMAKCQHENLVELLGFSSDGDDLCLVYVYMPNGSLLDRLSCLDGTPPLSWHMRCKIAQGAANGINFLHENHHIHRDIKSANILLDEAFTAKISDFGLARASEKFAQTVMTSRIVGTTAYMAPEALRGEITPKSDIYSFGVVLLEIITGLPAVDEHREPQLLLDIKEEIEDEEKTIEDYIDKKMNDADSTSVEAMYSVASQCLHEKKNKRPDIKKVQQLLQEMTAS
For the molecule `Cc1ccc(-n2nc(C3CCN(C(C)C)CC3)cc2NC(=O)c2cnn3cccnc23)cc1` [Example 37, N-(3-(1-isopropylpiperidin-4-yl)-1-(p-tolyl)-1H-pyrazol-5-yl)pyrazolo[1,5-a]pyrimidine-3-carboxamide], the 50% inhibitory concentration (IC50) is under 0.1 µM.
Still for that read-out and setting: the value for `Cc1ccc(-n2nc(-c3ccc(CN4CCN(C)CC4)cc3)cc2NC(=O)c2cnn3cccnc23)cc1` [Example 144] was under 0.1 µM.
On to `CCN(CC)CCC(=O)N1CCC(c2cc(NC(=O)c3cnn4cc(Br)cnc34)n(-c3ccc(C)cc3)n2)CC1` [Example 114, 6-bromo-N-(3-(1-(3-(diethylamino)propanoyl)piperidin-4-yl)-1-(p-tolyl)-1H-pyrazol-5-yl)pyrazolo[1,5-a]pyrimidine-3-carboxamide], for which the IC50 was under 0.1 µM.
The molecule `CNS(=O)(=O)c1ccc(-c2cc(NC(=O)c3cnn4cccnc34)n(-c3ccc(C4CC4)cn3)n2)cc1` [Example 151, N-(1-(5-cyclopropylpyridin-2-yl)-3-(4-(N-methylsulfamoyl)phenyl)-1H-pyrazol-5-yl)pyrazolo[1,5-a]pyrimidine-3-carboxamide] came in with an IC50 of under 0.1 µM.
On the same count and under the same terms, under `Cc1ccc(-n2nc(C3CCN(C4CCC5CC54)CC3)cc2NC(=O)c2cnn3cccnc23)cc1` (centres unmarked) [Example 254, N-[3-(1-bicyclo[3.1.0]hex-2-ylpiperidin-4-yl)-1-(4-methylphenyl)-1H-pyrazol-5-yl]pyrazolo[1,5-a]pyrimidine-3-carboxamide] stands under 0.1 µM.
On to `COc1ccc(-n2nc(C3CCNCC3)cc2NC(=O)c2cnn3cccnc23)c(F)c1` [Example 61, N-(1-(2-fluoro-4-methoxyphenyl)-3-(piperidin-4-yl)-1H-pyrazol-5-yl)pyrazolo[1,5-a]pyrimidine-3-carboxamide], for which the IC50 was under 0.1 µM.
`CCCN1CCC(c2cc(NC(=O)c3cnn4cccnc34)n(-c3ccc(C)cn3)n2)CC1` [Example 280, N-[1-(5-methylpyridin-2-yl)-3-(1-propylpiperidin-4-yl)-1H-pyrazol-5-yl]pyrazolo[1,5-a]pyrimidine-3-carboxamide] gave an IC50 of under 0.1 µM.
Turning to `COc1ccc(-c2cc(NC(=O)c3cnn4cccnc34)n(-c3ccc(C)cc3)n2)cc1OC` [Example 133, N-(3-(3,4-dimethoxyphenyl)-1-(p-tolyl)-1H-pyrazol-5-yl)pyrazolo[1,5-a]pyrimidine-3-carboxamide], the IC50 was under 0.1 µM.
`Cc1ccc(-n2nc(N3CCN(CC(C)C)CC3)cc2NC(=O)c2cnn3cccnc23)nc1` [Example 324, N-{3-[4-(2-methylpropyl)piperazin-1-yl]-1-(5-methylpyridin-2-yl)-1H-pyrazol-5-yl}pyrazolo[1,5-a]pyrimidine-3-carboxamide] yielded a half-maximal inhibitory concentration (IC50) of under 0.1 µM.
Regarding `COc1ccc(-n2nc(C3CCN(S(=O)(=O)C4CC4)CC3)cc2NC(=O)c2cnn3cccnc23)cc1` [Example 24, N-(3-(1-(cyclopropylsulfonyl)piperidin-4-yl)-1-(4-methoxyphenyl)-1H-pyrazol-5-yl)pyrazolo[1,5-a]pyrimidine-3-carboxamide], the IC50 is under 0.1 µM.
Still for that read-out and setting: the value for `COc1ncccc1CN1CC(c2cc(NC(=O)c3cnn4cccnc34)n(-c3ccc(C)cc3)n2)C1` [Example 313, N-[3-{1-[(2-methoxypyridin-3-yl)methyl]azetidin-3-yl}-1-(4-methylphenyl)-1H-pyrazol-5-yl]pyrazolo[1,5-a]pyrimidine-3-carboxamide] was under 0.1 µM.

Still in this test, the particulars now being: 100 μM ATP, 30 minutes at 25° C.; μM.
As to `COc1ccc(-n2nc(C3CCNCC3)cc2NC(=O)c2cnn3cc(Br)cnc23)cc1` [Example 104, 6-bromo-N-(1-(4-methoxyphenyl)-3-(piperidin-4-yl)-1H-pyrazol-5-yl)pyrazolo[1,5-a]pyrimidine-3-carboxamide], the half-inhibitory concentration (IC50) was under 1 µM.
In turn, `COc1ncc(CN2CC(c3cc(NC(=O)c4cnn5cccnc45)n(-c4ccc(C)cc4)n3)C2)cn1` [Example 317, N-[3-{1-[(2-methoxypyrimidin-5-yl)methyl]azetidin-3-yl}-1-(4-methylphenyl)-1H-pyrazol-5-yl]pyrazolo[1,5-a]pyrimidine-3-carboxamide] registered an IC50 of under 1 µM.
On the same count and under the same terms, the value for `Cc1ccc(-n2nc(C3CCN(C4CN(S(C)(=O)=O)C4)CC3)cc2NC(=O)c2cnn3cccnc23)cc1` [Example 244, N-[1-(4-methylphenyl)-3-{1-[1-(methylsulfonyl)azetidin-3-yl]piperidin-4-yl}-1H-pyrazol-5-yl]pyrazolo[1,5-a]pyrimidine-3-carboxamide] was under 1 µM; that for `Cc1ccc(-n2nc(C3CCN(S(=O)(=O)c4ccc(C(F)(F)F)cc4)CC3)cc2NC(=O)c2cnn3cccnc23)cc1` [Example 381, N-[1-(4-methylphenyl)-3-(1-{[4-(trifluoromethyl)phenyl]sulfonyl}piperidin-4-yl)-1H-pyrazol-5-yl]pyrazolo[1,5-a]pyrimidine-3-carboxamide] was over 1 µM.
With `CN1CCC(c2cc(NC(=O)c3cnn4cccnc34)n(-c3ccc(Cl)cc3F)n2)CC1` [Example 50, N-(1-(4-chloro-2-fluorophenyl)-3-(1-methylpiperidin-4-yl)-1H-pyrazol-5-yl)pyrazolo[1,5-a]pyrimidine-3-carboxamide], the 50% inhibitory concentration (IC50) was under 1 µM.
On the same count and under the same terms, under `Cc1cccc(-n2nc(C3CCN(S(=O)(=O)C4CC4)CC3)cc2NC(=O)c2cnn3cccnc23)c1` [Example 21, N-(3-(1-(cyclopropylsulfonyl)piperidin-4-yl)-1-(m-tolyl)-1H-pyrazol-5-yl)pyrazolo[1,5-a]pyrimidine-3-carboxamide] stands under 1 µM; under `Cc1ccccc1-n1nc(C2CCNCC2)cc1NC(=O)c1cnn2cccnc12` [Example 14, N-(3-(piperidin-4-yl)-1-(o-tolyl)-1H-pyrazol-5-yl)pyrazolo[1,5-a]pyrimidine-3-carboxamide], over 1 µM; under `Cc1ccc(-n2nc(C3CCCN(Cc4cscn4)C3)cc2NC(=O)c2cnn3cccnc23)cc1` (centres unmarked) [Example 288, N-{1-(4-methylphenyl)-3-[1-(1,3-thiazol-4-ylmethyl)piperidin-3-yl]-1H-pyrazol-5-yl}pyrazolo[1,5-a]pyrimidine-3-carboxamide], under 1 µM.
`Cc1ccc(-n2nc(C3CCCN(Cc4nccs4)C3)cc2NC(=O)c2cnn3cccnc23)cc1` (centres unmarked) [Example 298, N-{1-(4-methylphenyl)-3-[1-(1,3-thiazol-2-ylmethyl)piperidin-3-yl]-1H-pyrazol-5-yl}pyrazolo[1,5-a]pyrimidine-3-carboxamide] came in with an IC50 of under 1 µM.
Consider `Cc1ccc(-n2nc(C3CCN(S(=O)(=O)Cc4noc5ccccc45)CC3)cc2NC(=O)c2cnn3cccnc23)cc1` [Example 356, N-[3-{1-[(1,2-benzisoxazol-3-ylmethyl)sulfonyl]piperidin-4-yl}-1-(4-methylphenyl)-1H-pyrazol-5-yl]pyrazolo[1,5-a]pyrimidine-3-carboxamide], for which the half-inhibitory concentration (IC50) is under 1 µM.
Same read-out and setting: under `CC(=O)c1ccc(-n2nc(C3CCN(S(C)(=O)=O)CC3)cc2NC(=O)c2cnn3cccnc23)cc1` [Example 90, N-(1-(4-acetylphenyl)-3-(1-(methylsulfonyl)piperidin-4-yl)-1H-pyrazol-5-yl)pyrazolo[1,5-a]pyrimidine-3-carboxamide] stands under 1 µM; under `Cc1ccc(-n2nc(C3CCN(S(C)(=O)=O)CC3)cc2NC(=O)c2cnn3cc(C#N)cnc23)cc1` [Example 121, 6-cyano-N-(3-(1-(methylsulfonyl)piperidin-4-yl)-1-(p-tolyl)-1H-pyrazol-5-yl)pyrazolo[1,5-a]pyrimidine-3-carboxamide], under 1 µM.

The values are drawn from patent publication US9169260B2 (MERCK SHARP & DOHME CORP., priority 2011, dated 2015).
